Experiments:
HL-60 = experiment: Cytotoxicity against human HL60 cells assessed as decrease in cell viability after 4 days by MTT assay; format: functional, cell-based; settings: HL-60, 96 h
SMMC-7721 [1] = experiment: Cytotoxicity against human SMMC7721 cells assessed as decrease in cell viability after 4 days by MTT assay; format: functional, cell-based; settings: SMMC-7721, 96 h
A549 = experiment: Cytotoxicity against human A549 cells assessed as decrease in cell viability after 4 days by MTT assay; format: functional, cell-based; settings: A549, 96 h
MCF7 = experiment: Cytotoxicity against human MCF7 cells assessed as decrease in cell viability after 4 days by MTT assay; format: functional, cell-based; settings: MCF7, 96 h
SW480 [2] = experiment: Cytotoxicity against human SW480 cells assessed as decrease in cell viability after 4 days by MTT assay; format: functional, cell-based; settings: SW480, 96 h
SW480 [3] = experiment: Potency index, ratio of cisplatin IC50 to compound IC50 for human SW480 cells; format: functional
SMMC-7721 [4] = experiment: Induction of apoptosis in human SMMC7721 cells assessed as viable cells at 0.425 uM after 48 hrs by Annexin V-FITC/PI double staining based flow cytometry (reference value: 100%); format: functional; settings: SMMC-7721, 48 h, read-out: Activity
SMMC-7721 [5] = experiment: Induction of apoptosis in human SMMC7721 cells assessed as early apoptotic cells at 0.425 uM after 48 hrs by Annexin V-FITC/PI double staining based flow cytometry (reference value: 0.035%); format: functional
SMMC-7721 [6] = experiment: Induction of apoptosis in human SMMC7721 cells assessed as late apoptotic cells at 0.425 uM after 48 hrs by Annexin V-FITC/PI double staining based flow cytometry (reference value: 0%); format: functional
SMMC-7721 [7] = experiment: Induction of apoptosis in human SMMC7721 cells assessed as necrotic cells at 0.425 uM after 48 hrs by Annexin V-FITC/PI double staining based flow cytometry (reference value: 0%); format: functional
SMMC-7721 [8] = experiment: Induction of apoptosis in human SMMC7721 cells assessed as viable cells at 0.85 uM after 48 hrs by Annexin V-FITC/PI double staining based flow cytometry (reference value: 100%); format: functional; settings: SMMC-7721, 48 h, read-out: Activity
SMMC-7721 [9] = experiment: Induction of apoptosis in human SMMC7721 cells assessed as early apoptotic cells at 0.85 uM after 48 hrs by Annexin V-FITC/PI double staining based flow cytometry (reference value: 0.035%); format: functional
SMMC-7721 [10] = experiment: Induction of apoptosis in human SMMC7721 cells assessed as late apoptotic cells at 0.85 uM after 48 hrs by Annexin V-FITC/PI double staining based flow cytometry (reference value: 0%); format: functional
SMMC-7721 [11] = experiment: Induction of apoptosis in human SMMC7721 cells assessed as necrotic cells at 0.85 uM after 48 hrs by Annexin V-FITC/PI double staining based flow cytometry (reference value: 0%); format: functional
SMMC-7721 [12] = experiment: Induction of apoptosis in human SMMC7721 cells assessed as viable cells at 1.7 uM after 48 hrs by Annexin V-FITC/PI double staining based flow cytometry (reference value: 100%); format: functional; settings: SMMC-7721, 48 h, read-out: Activity
SMMC-7721 [13] = experiment: Induction of apoptosis in human SMMC7721 cells assessed as early apoptotic cells at 1.7 uM after 48 hrs by Annexin V-FITC/PI double staining based flow cytometry (reference value: 0.035%); format: functional
SMMC-7721 [14] = experiment: Induction of apoptosis in human SMMC7721 cells assessed as late apoptotic cells at 1.7 uM after 48 hrs by Annexin V-FITC/PI double staining based flow cytometry (reference value: 0%); format: functional
SMMC-7721 [15] = experiment: Induction of apoptosis in human SMMC7721 cells assessed as necrotic cells at 1.7 uM after 48 hrs by Annexin V-FITC/PI double staining based flow cytometry (reference value: 0%); format: functional
SMMC-7721 [16] = experiment: Induction of apoptosis in human SMMC7721 cells assessed as viable cells at 3.4 uM after 48 hrs by Annexin V-FITC/PI double staining based flow cytometry (reference value: 100%); format: functional; settings: SMMC-7721, 48 h, read-out: Activity
SMMC-7721 [17] = experiment: Induction of apoptosis in human SMMC7721 cells assessed as early apoptotic cells at 3.4 uM after 48 hrs by Annexin V-FITC/PI double staining based flow cytometry (reference value: 0.035%); format: functional
SMMC-7721 [18] = experiment: Induction of apoptosis in human SMMC7721 cells assessed as late apoptotic cells at 3.4 uM after 48 hrs by Annexin V-FITC/PI double staining based flow cytometry (reference value: 0%); format: functional
SMMC-7721 [19] = experiment: Induction of apoptosis in human SMMC7721 cells assessed as necrotic cells at 3.4 uM after 48 hrs by Annexin V-FITC/PI double staining based flow cytometry (reference value: 0%); format: functional
SMMC-7721 [20] = experiment: Cell cycle arrest in human SMMC7721 cells assessed as accumulation at S phase after 24 hrs by propidium iodide staining based flow cytometry; format: functional
SMMC-7721 [21] = experiment: Cell cycle arrest in human SMMC7721 cells assessed as accumulation at G0/G1 phase at 0.425 uM after 24 hrs by propidium iodide staining based flow cytometry (reference value: 77.85 +/- 1.90%); format: functional
SMMC-7721 [22] = experiment: Cell cycle arrest in human SMMC7721 cells assessed as accumulation at G0/G1 phase at 0.85 uM after 24 hrs by propidium iodide staining based flow cytometry (reference value: 77.85 +/- 1.90%); format: functional
SMMC-7721 [23] = experiment: Cell cycle arrest in human SMMC7721 cells assessed as accumulation at G0/G1 phase at 1.7 uM after 24 hrs by propidium iodide staining based flow cytometry (reference value: 77.85 +/- 1.90%); format: functional
SMMC-7721 [24] = experiment: Cell cycle arrest in human SMMC7721 cells assessed as accumulation at G0/G1 phase at 3.4 uM after 24 hrs by propidium iodide staining based flow cytometry (reference value: 77.85 +/- 1.90%); format: functional
SMMC-7721 [25] = experiment: Cell cycle arrest in human SMMC7721 cells assessed as accumulation at S phase at 0.425 uM after 24 hrs by propidium iodide staining based flow cytometry (reference value: 13.71 +/- 0.62%); format: functional
SMMC-7721 [26] = experiment: Cell cycle arrest in human SMMC7721 cells assessed as accumulation at S phase at 0.85 uM after 24 hrs by propidium iodide staining based flow cytometry (reference value: 13.71 +/- 0.62%); format: functional
SMMC-7721 [27] = experiment: Cell cycle arrest in human SMMC7721 cells assessed as accumulation at S phase at 1.7 uM after 24 hrs by propidium iodide staining based flow cytometry (reference value: 13.71 +/- 0.62%); format: functional
SMMC-7721 [28] = experiment: Cell cycle arrest in human SMMC7721 cells assessed as accumulation at S phase at 3.4 uM after 24 hrs by propidium iodide staining based flow cytometry (reference value: 13.71 +/- 0.62%); format: functional
SMMC-7721 [29] = experiment: Cell cycle arrest in human SMMC7721 cells assessed as accumulation at G2/M phase at 0.425 uM after 24 hrs by propidium iodide staining based flow cytometry (reference value: 5.72 +/- 0.59%); format: functional
SMMC-7721 [30] = experiment: Cell cycle arrest in human SMMC7721 cells assessed as accumulation at G2/M phase at 0.85 uM after 24 hrs by propidium iodide staining based flow cytometry (reference value: 5.72 +/- 0.59%); format: functional
SMMC-7721 [31] = experiment: Cell cycle arrest in human SMMC7721 cells assessed as accumulation at G2/M phase at 1.7 uM after 24 hrs by propidium iodide staining based flow cytometry (reference value: 5.72 +/- 0.59%); format: functional
SMMC-7721 [32] = experiment: Cell cycle arrest in human SMMC7721 cells assessed as accumulation at G2/M phase at 3.4 uM after 24 hrs by propidium iodide staining based flow cytometry (reference value: 5.72 +/- 0.59%); format: functional

Compound: C=C1C(=O)[C@]23C[C@@]1(O)CC[C@H]2c1ccc(O)c(C)c1[C@@H]3Cn1cc(-c2ccc(F)cc2)nn1
- IC50 (HL-60): 660 nM
- IC50 (SMMC-7721 [1]): 850 nM
- IC50 (A549): 940 nM
- IC50 (MCF7): 1700 nM
- IC50 (SW480 [2]): 250 nM
- Ratio IC50 (SW480 [3]): 33
- viability at 0.425 µM (SMMC-7721 [4]): 80.9%
- Activity (SMMC-7721 [5]): 3.31%
- Activity (SMMC-7721 [6]): 12.7%
- Activity (SMMC-7721 [7]): 3.14%
- viability at 0.85 µM (SMMC-7721 [8]): 79.8%
- Activity (SMMC-7721 [9]): 7.83%
- Activity (SMMC-7721 [10]): 10.7%
- Activity (SMMC-7721 [11]): 1.72%
- viability at 1.7 µM (SMMC-7721 [12]): 43.4%
- Activity (SMMC-7721 [13]): 31.9%
- Activity (SMMC-7721 [14]): 22.7%
- Activity (SMMC-7721 [15]): 1.97%
- viability at 3.4 µM (SMMC-7721 [16]): 2.17%
- Activity (SMMC-7721 [17]): 90.4%
- Activity (SMMC-7721 [18]): 7.41%
- Activity (SMMC-7721 [19]): 0.053%
- Activity (SMMC-7721 [20]): Dose-dependent effect
- Activity (SMMC-7721 [21]): 78.27%
- Activity (SMMC-7721 [22]): 74.23%
- Activity (SMMC-7721 [23]): 70.87%
- Activity (SMMC-7721 [24]): 71.54%
- Activity (SMMC-7721 [25]): 13.92%
- Activity (SMMC-7721 [26]): 17.38%
- Activity (SMMC-7721 [27]): 19.35%
- Activity (SMMC-7721 [28]): 22.73%
- Activity (SMMC-7721 [29]): 6.24%
- Activity (SMMC-7721 [30]): 7.7%
- Activity (SMMC-7721 [31]): 6.05%
- Activity (SMMC-7721 [32]): 0.89%
